Data taken from PubChem BioAssay (NCI).
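48-hour exposure; five concentrations; linearly interpolated endpoints. TGI is the concentration that stops growth completely.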

Key:
Experiment in all cases: NCI anticancer screen, dose series, 48 h
RPMI-8226 leukemia = test system: RPMI-8226 leukemia
HCT-116 colon = test system: HCT-116 colon
A498 renal = test system: A498 renal
OVCAR-8 ovarian = test system: OVCAR-8 ovarian
OVCAR-3 ovarian = test system: OVCAR-3 ovarian
HOP-92 NSCLC = test system: HOP-92 NSCLC
UACC-257 melanoma = test system: UACC-257 melanoma
K-562 leukemia = test system: K-562 leukemia
UO-31 renal = test system: UO-31 renal
LOX IMVI melanoma = test system: LOX IMVI melanoma
SK-OV-3 ovarian = test system: SK-OV-3 ovarian
NCI-H226 lung = test system: NCI-H226 lung
SNB-19 CNS = test system: SNB-19 CNS
786-0 renal = test system: 786-0 renal
MOLT-4 leukemia = test system: MOLT-4 leukemia
SK-MEL-28 melanoma = test system: SK-MEL-28 melanoma
DU-145 prostate = test system: DU-145 prostate
HS 578T breast = test system: HS 578T breast

Compound `CC(C)(C)N=NNc1cn(C2OC(CO)C(O)C2O)c(=O)[nH]c1=O` (centres undefined) has a TGI (RPMI-8226 leukemia) of 42.7 µM, a TGI (HCT-116 colon) greater than 100 µM and a TGI (A498 renal) greater than 100 µM. For the same compound, the TGI (OVCAR-8 ovarian) was greater than 100 µM, the TGI (OVCAR-3 ovarian) was greater than 100 µM and the TGI (HOP-92 NSCLC) was greater than 100 µM. It also gave a TGI (UACC-257 melanoma) greater than 100 µM, a TGI (K-562 leukemia) greater than 100 µM and a TGI (UO-31 renal) greater than 100 µM. The TGI (LOX IMVI melanoma) was greater than 100 µM, the TGI (SK-OV-3 ovarian) was greater than 100 µM and the TGI (NCI-H226 lung) was greater than 100 µM. For the same compound, the TGI (SNB-19 CNS) was greater than 100 µM, the TGI (786-0 renal) was greater than 100 µM and the TGI (MOLT-4 leukemia) was greater than 100 µM. For the same compound, the TGI (SK-MEL-28 melanoma) was greater than 100 µM.

`Nc1ncnc2c1nnn2C1C=CC(COS(N)(=O)=O)C1` (centres undefined) was tested, and the TGI (RPMI-8226 leukemia) was 50.7 µM, the TGI (HCT-116 colon) was 36.3 µM and the TGI (OVCAR-8 ovarian) was 55 µM. The TGI (DU-145 prostate) was greater than 100 µM, the TGI (OVCAR-3 ovarian) was 96.1 µM and the TGI (UACC-257 melanoma) was 62.6 µM. It also gave a TGI (K-562 leukemia) greater than 100 µM, a TGI (UO-31 renal) of 49 µM and a TGI (LOX IMVI melanoma) of 17.8 µM. It also gave a TGI (SK-OV-3 ovarian) greater than 100 µM, a TGI (NCI-H226 lung) of 42.1 µM and a TGI (SNB-19 CNS) of 33.3 µM. It also gave a TGI (786-0 renal) of 33.3 µM, a TGI (MOLT-4 leukemia) greater than 100 µM and a TGI (HS 578T breast) of 8.3 µM. It also gave a TGI (SK-MEL-28 melanoma) of 26.2 µM.

`Cc1cccc2c(=O)c([Se]c3coc4c(C)cccc4c3=O)coc12` was tested, and the TGI (RPMI-8226 leukemia) was greater than 100 µM, the TGI (HCT-116 colon) was 17.2 µM and the TGI (A498 renal) was 41 µM. The TGI (OVCAR-8 ovarian) was 29.8 µM, the TGI (OVCAR-3 ovarian) was 65.6 µM and the TGI (HOP-92 NSCLC) was 40.5 µM. It also gave a TGI (UACC-257 melanoma) of 38.5 µM, a TGI (K-562 leukemia) greater than 100 µM and a TGI (UO-31 renal) of 28.7 µM. It also gave a TGI (LOX IMVI melanoma) of 35.5 µM, a TGI (SK-OV-3 ovarian) of 31.5 µM and a TGI (NCI-H226 lung) of 33.1 µM. The TGI (SNB-19 CNS) was 47.4 µM, the TGI (786-0 renal) was 31 µM and the TGI (MOLT-4 leukemia) was greater than 100 µM. It also gave a TGI (SK-MEL-28 melanoma) of 32.5 µM.

`Cc1nc(Nc2ccc(Cl)cc2)sc1C(=O)NNc1ccc([N+](=O)[O-])cc1[N+](=O)[O-]` showed a TGI (RPMI-8226 leukemia) of 51.8 µM, a TGI (HCT-116 colon) of 26.7 µM and a TGI (A498 renal) of 30.6 µM. For the same compound, the TGI (OVCAR-8 ovarian) was 46.5 µM, the TGI (OVCAR-3 ovarian) was 38.7 µM and the TGI (HOP-92 NSCLC) was 41.4 µM. The TGI (UACC-257 melanoma) was 31.3 µM, the TGI (K-562 leukemia) was 46.1 µM and the TGI (UO-31 renal) was 27.2 µM. It also gave a TGI (LOX IMVI melanoma) of 35.7 µM, a TGI (SK-OV-3 ovarian) of 52.3 µM and a TGI (NCI-H226 lung) of 32.6 µM. It also gave a TGI (SNB-19 CNS) of 30.4 µM, a TGI (786-0 renal) of 29.8 µM and a TGI (MOLT-4 leukemia) of 46.7 µM. The TGI (SK-MEL-28 melanoma) was 34.1 µM.

In the case of `COc1ccc(Nc2nc3ccc(C(F)(F)F)cc3nc2-c2ccccc2)cc1OC`, the TGI (HCT-116 colon) is reported as greater than 100 µM, the TGI (A498 renal) is reported as greater than 100 µM and the TGI (OVCAR-8 ovarian) is reported as greater than 100 µM. It also gave a TGI (OVCAR-3 ovarian) greater than 100 µM, a TGI (HOP-92 NSCLC) of 36.9 µM and a TGI (UACC-257 melanoma) greater than 100 µM. It also gave a TGI (K-562 leukemia) greater than 100 µM, a TGI (UO-31 renal) of 72.9 µM and a TGI (LOX IMVI melanoma) of 31.6 µM. It also gave a TGI (SK-OV-3 ovarian) greater than 100 µM, a TGI (NCI-H226 lung) greater than 100 µM and a TGI (786-0 renal) of 72.7 µM. For the same compound, the TGI (MOLT-4 leukemia) was greater than 100 µM and the TGI (SK-MEL-28 melanoma) was greater than 100 µM.

In the case of `O=C1c2ccc(O)cc2C(=O)c2ccc(O)cc21`, the TGI (RPMI-8226 leukemia) is reported as greater than 100 µM, the TGI (HCT-116 colon) is reported as greater than 100 µM and the TGI (A498 renal) is reported as greater than 100 µM. The TGI (OVCAR-8 ovarian) was greater than 100 µM, the TGI (OVCAR-3 ovarian) was greater than 100 µM and the TGI (HOP-92 NSCLC) was greater than 100 µM. The TGI (UACC-257 melanoma) was greater than 100 µM, the TGI (K-562 leukemia) was greater than 100 µM and the TGI (UO-31 renal) was 73.2 µM. For the same compound, the TGI (LOX IMVI melanoma) was greater than 100 µM, the TGI (SK-OV-3 ovarian) was 84.8 µM and the TGI (SNB-19 CNS) was greater than 100 µM. It also gave a TGI (786-0 renal) greater than 100 µM, a TGI (MOLT-4 leukemia) greater than 100 µM and a TGI (SK-MEL-28 melanoma) greater than 100 µM.

For `CCc1cc(Cc2cc(Cl)c(NC(=O)C(=O)C3NC(=O)NC3=O)c(CC)c2)cc(Cl)c1NC(=O)C(=O)C1NC(=O)NC1=O` (centres undefined), the TGI (RPMI-8226 leukemia) was greater than 100 µM, the TGI (HCT-116 colon) was 94.8 µM and the TGI (A498 renal) was greater than 100 µM. For the same compound, the TGI (OVCAR-8 ovarian) was 58.6 µM, the TGI (OVCAR-3 ovarian) was greater than 100 µM and the TGI (HOP-92 NSCLC) was greater than 100 µM. It also gave a TGI (UACC-257 melanoma) greater than 100 µM, a TGI (K-562 leukemia) greater than 100 µM and a TGI (UO-31 renal) greater than 100 µM. It also gave a TGI (LOX IMVI melanoma) greater than 100 µM, a TGI (SK-OV-3 ovarian) greater than 100 µM and a TGI (NCI-H226 lung) greater than 100 µM. The TGI (SNB-19 CNS) was greater than 100 µM, the TGI (786-0 renal) was greater than 100 µM and the TGI (MOLT-4 leukemia) was greater than 100 µM. It also gave a TGI (SK-MEL-28 melanoma) greater than 100 µM.
